Data as given in US20240390295A1, “METHODS FOR TREATING DEPRESSION” (JANSSEN PHARMACEUTICA NV, priority 2020, published 2024).

Tested on: adult patients (aged 18-64 years) with TRD
Test: Maximum time to onset of clinician-reported adverse events by AE week 1/week 4 occurrence (Tables 5-16; modal dose 56, modal dose 84, Total)
Type: in vivo, human
Experimental: Patients were monitored for >90 minutes after ESK administration at each treatment session, after which time they could leave the clinical site at the clinician's discretion. AEs were monitored and reported, and safety assessments, including clinical laboratory tests and physical examinations, were conducted throughout the study. Clinician-reported AEs were categorized as mild, moderate, or severe based on clinical judgement (Table 1).
Since flexible dosing (ESK 56 or 84 mg) was permitted in the studies and an individual patient's doses could change within dosing timeframes, patients were stratified by modal dose during the respective periods.
The time to onset of the adverse events experienced by patients in Example 2 was analyzed. Tables 5-11 include the summary of specific adverse events by their respective categorized maximum time to Onset (i) across sessions 3-8 during Induction Phase by AE week 1 occurrence (Table 5), (ii) during Optimization Phase by AE week 1 occurrence (Table 6), (iii) during Optimization Phase by AE week 4 occurrence (Table 7), (iv) during Month 3-6 of Maintenance Phase by AE week 1 occurrence (Table 8), (v) Month 3-6 of Maintenance Phase by AE week 4 occurrence (Table 9), (vi) Month 6-12 of Maintenance Phase by AE week 1 occurrence (Table 10), and (vii) during Month 6-12 of Maintenance Phase by AE week 4 (Table 11).
Tables 12-16 include the incidences of clinician-reported blood pressure (Table 12), clinician-reported dissociation (Table 13), dizziness (Table 14), sedation (Table 15), and vertigo (Table 16) spanning week 1 to month 12 using the data of Example 2.

[1] = Based on Week 1, None, Month 3-6
[2] = Based on Week 1, None, Month 6-12
[3] = Based on Week 1, None, Weeks 2-4
[4] = Based on Week 1, Once, Month 3-6
[5] = Based on Week 1, Once, Month 6-12
[6] = Based on Week 1, Once, Weeks 2-4
[7] = Based on Week 1, Twice, Month 2
[8] = Based on Week 1, Twice, Month 3-6
[9] = Based on Week 1, Twice, Month 6-12
[10] = Based on Week 1, Twice, Weeks 2-4
[11] = Based on Week 1, incidence None, Month 2
[12] = Based on Week 1, incidence None, Month 3-6
[13] = Based on Week 1, incidence None, Month 6-12
[14] = Based on Week 1, incidence None, Weeks 2-4
[15] = Based on Week 1, incidence Once, Month 2
[16] = Based on Week 1, incidence Once, Month 3-6
[17] = Based on Week 1, incidence Once, Month 6-12
[18] = Based on Week 1, incidence Once, Weeks 2-4
[19] = Based on Week 1, incidence Twice, Month 2
[20] = Based on Week 1, incidence Twice, Month 3-6
[21] = Based on Week 1, incidence Twice, Month 6-12
[22] = Based on Week 1, incidence Twice, Weeks 2-4
[23] = Based on Week 4, None, Month 3-6

CN[C@]1(c2ccccc2Cl)CCCCC1=O [esketamine, (S)-2-(2-chlorophenyl)-2-(methylamino)cyclohexanone]
Blood Pressure (clinician): 0-30 m (Based on Week 1, None, Month 2): 1 | Blood Pressure (clinician): 31-60 m (Based on Week 1, None, Month 2): 12 | Blood Pressure (clinician): 61-90 m (Based on Week 1, None, Month 2): 2 | Blood Pressure (clinician): % >60 m (Based on Week 1, None, Month 2): 11.8% | Blood Pressure (clinician): TOTAL (Based on Week 1, None, Month 2): 17 | Blood Pressure (clinician): n >60 m (Based on Week 1, None, Month 2): 2 | Blood Pressure (clinician): 31-60 m [1]: 13 | Blood Pressure (clinician): 61-90 m [1]: 1 | Blood Pressure (clinician): % >60 m [1]: 5.9% | Blood Pressure (clinician): TOTAL [1]: 17 | Blood Pressure (clinician): n >60 m [1]: 1 | Blood Pressure (clinician): 31-60 m [2]: 8 | Blood Pressure (clinician): 61-90 m [2]: 1 | Blood Pressure (clinician): % >60 m [2]: 10% | Blood Pressure (clinician): TOTAL [2]: 10 | Blood Pressure (clinician): n >60 m [2]: 1 | Blood Pressure (clinician): 31-60 m [3]: 20 | Blood Pressure (clinician): 61-90 m [3]: 1 | Blood Pressure (clinician): % >60 m [3]: 4.8% | Blood Pressure (clinician): TOTAL [3]: 21 | Blood Pressure (clinician): n >60 m [3]: 1 | Blood Pressure (clinician): 31-60 m (Based on Week 1, Once, Month 2): 9 | Blood Pressure (clinician): % >60 m (Based on Week 1, Once, Month 2): 0% | Blood Pressure (clinician): TOTAL (Based on Week 1, Once, Month 2): 9 | Blood Pressure (clinician): n >60 m (Based on Week 1, Once, Month 2): 0 | Blood Pressure (clinician): 31-60 m [4]: 4 | Blood Pressure (clinician): % >60 m [4]: 0% | Blood Pressure (clinician): TOTAL [4]: 4 | Blood Pressure (clinician): n >60 m [4]: 0 | Blood Pressure (clinician): 31-60 m [5]: 1 | Blood Pressure (clinician): % >60 m [5]: 0% | Blood Pressure (clinician): TOTAL [5]: 1 | Blood Pressure (clinician): n >60 m [5]: 0 | Blood Pressure (clinician): 0-30 m [6]: 1 | Blood Pressure (clinician): 31-60 m [6]: 11 | Blood Pressure (clinician): 61-90 m [6]: 1 | Blood Pressure (clinician): % >60 m [6]: 7.7% | Blood Pressure (clinician): TOTAL [6]: 13 | Blood Pressure (clinician): n >60 m [6]: 1 | Blood Pressure (clinician): 31-60 m [7]: 10 | Blood Pressure (clinician): % >60 m [7]: 0% | Blood Pressure (clinician): TOTAL [7]: 10 | Blood Pressure (clinician): n >60 m [7]: 0 | Blood Pressure (clinician): 31-60 m [8]: 3 | Blood Pressure (clinician): 61-90 m [8]: 1 | Blood Pressure (clinician): % >60 m [8]: 25% | Blood Pressure (clinician): TOTAL [8]: 4 | Blood Pressure (clinician): n >60 m [8]: 1 | Blood Pressure (clinician): 31-60 m [9]: 2 | Blood Pressure (clinician): % >60 m [9]: 0% | Blood Pressure (clinician): TOTAL [9]: 2 | Blood Pressure (clinician): n >60 m [9]: 0 | Blood Pressure (clinician): 31-60 m [10]: 12 | Blood Pressure (clinician): 61-90 m [10]: 1 | Blood Pressure (clinician): % >60 m [10]: 14.2% | Blood Pressure (clinician): >90 m [10]: 1 | Blood Pressure (clinician): TOTAL [10]: 14 | Blood Pressure (clinician): n >60 m [10]: 2 | Dissociation (clinician), % >60 m [11]: 0% | Dizziness, % >60 m [11]: 3.7% | Sedation, % >60 m [11]: 0% | Vertigo, % >60 m [11]: 4.2% | Dissociation (clinician), % >60 m [12]: 2.8% | Dizziness, % >60 m [12]: 2.9% | Sedation, % >60 m [12]: 11.8% | Vertigo, % >60 m [12]: 16.7% | Dissociation (clinician), % >60 m [13]: 4.5% | Dizziness, % >60 m [13]: 0% | Sedation, % >60 m [13]: 0% | Vertigo, % >60 m [13]: 11.1% | Dissociation (clinician), % >60 m [14]: 0% | Dizziness, % >60 m [14]: 4.3% | Sedation, % >60 m [14]: 15.8% | Vertigo, % >60 m [14]: 11.1% | Dissociation (clinician), % >60 m [15]: 4% | Dizziness, % >60 m [15]: 6.1% | Sedation, % >60 m [15]: 0% | Vertigo, % >60 m [15]: 15.8% | Dissociation (clinician), % >60 m [16]: 0% | Dizziness, % >60 m [16]: 0% | Sedation, % >60 m [16]: 0% | Sedation, patients by time to onset [16]: 0 | Vertigo, % >60 m [16]: 16.7% | Dissociation (clinician), % >60 m [17]: 0% | Dizziness, % >60 m [17]: 0% | Sedation, % >60 m [17]: 0% | Sedation, patients by time to onset [17]: 0 | Vertigo, % >60 m [17]: 0% | Dissociation (clinician), % >60 m [18]: 7.3% | Dizziness, % >60 m [18]: 5.4% | Sedation, % >60 m [18]: 57.1% | Vertigo, % >60 m [18]: 10.3% | Dissociation (clinician), % >60 m [19]: 0% | Dizziness, % >60 m [19]: 5.5% | Sedation, % >60 m [19]: 0% | Vertigo, % >60 m [19]: 0% | Dissociation (clinician), % >60 m [20]: 3% | Dizziness, % >60 m [20]: 2.9% | Sedation, % >60 m [20]: 0% | Vertigo, % >60 m [20]: 4% | Dissociation (clinician), % >60 m [21]: 0% | Dizziness, % >60 m [21]: 7.1% | Sedation, % >60 m [21]: 0% | Vertigo, % >60 m [21]: 0% | Dissociation (clinician), % >60 m [22]: 6.3% | Dizziness, % >60 m [22]: 7.9% | Sedation, % >60 m [22]: 16.7% | Vertigo, % >60 m [22]: 4.6% | Blood Pressure (clinician): 0-30 m (Based on Week 4, None, Month 2): 1 | Blood Pressure (clinician): 31-60 m (Based on Week 4, None, Month 2): 13 | Blood Pressure (clinician): 61-90 m (Based on Week 4, None, Month 2): 2 | Blood Pressure (clinician): % >60 m (Based on Week 4, None, Month 2): 11.1% | Blood Pressure (clinician): TOTAL (Based on Week 4, None, Month 2): 18 | Blood Pressure (clinician): n >60 m (Based on Week 4, None, Month 2): 2 | Blood Pressure (clinician): 31-60 m [23]: 13 | Blood Pressure (clinician): 61-90 m [23]: 1 | Blood Pressure (clinician): % >60 m [23]: 5.9% | Blood Pressure (clinician): TOTAL [23]: 17
